Experimental data reported in US20240180139A1, “SOLVENT FOR INSECT REPELLENT ACTIVE INGREDIENT AND INSECT REPELLENT SYSTEM USING SAME” (Thermacell Repellents, Inc., priority 2021, published 2024).
Like-named read-outs stand apart in the source and are kept apart here.

Legend:
[1] = solubility of pyrethroid active ingredients in glycol solvents
Text: In the development of active ingredient and solvent formulations, glycols, like glycol-related solvents, have physical and chemical characteristics that would not be considered an aspiration hazard. Evaluations of a range of glycol and modified glycol solvents also involved consideration of a variety of materials in contact with these solvents. […] In addition to considerations of the device, solubility of the active ingredients is a significant consideration on several levels. […] Considerations of not only the solvent material but the concentration levels of particular active ingredients ae necessary to create an efficacious formula compatible with heated repeller devices. […] Incorporating active ingredients at such high levels creates additional solubility challenges which further reduces suitable active ingredient candidates.

[2] = release / vaporization rate through heated wick of dispensing device; format: physicochemical; conditions: relative to metofluthrin and transfluthrin, in certain test conditions
Text: Once candidate materials are identified, considerations of whether release rates relative to the selected glycols would be sufficient to deliver good spatial mosquito repellency. […] In one embodiment, an approximate 70:30 solvent ratio of two solvents is provided.

[3] = test system: mosquitoes; test: outdoor spatial mosquito repellency
Text: Once candidate materials are identified, considerations of whether release rates relative to the selected glycols would be sufficient to deliver good spatial mosquito repellency. […] In one embodiment, an approximate 70:30 solvent ratio of two solvents is provided. In another aspect, the solvent ratio may be a ratio range such as 60-70:40-30, or 65-70:35-30, wherein the sum of specific glycol amounts totals to 100.

With `OCCO` [ethylene glycol] the “solvent quality for insect repellents” value ([1]; some of the insect repellents, particularly prallethrin (FIG. 6)) was “not good solvents”.
In the case of `OCC(O)CO` [glycerol], the release rate capacity [2] is reported as “limited release rate capacity”.
For `C/C=C/C1C(C(=O)OCc2c(F)c(F)c(COC)c(F)c2F)C1(C)C` (centres unmarked) [metofluthrin], the “zone of mosquito repellency” value ([3]; glycol as solvent, 3-4 Watt heating element) was 20 foot and the “active ingredient concentration in the formula needed for sufficient outdoor mosquito repellency” value ([3]; outdoors) was 4%.
With `CC(O)CO` (centres unmarked) [propylene glycol] the “solvent quality for insect repellents” value [1] was “not good solvents”.
